Source: patent US9062070B2, “Inhibitors of the renal outer medullary potassium channel” (Merck Sharp & Dohme Corp., priority 2011, dated 2015)

Columns and labels:
[1] = molecular target: hROMK (hKir1.1) (Homo sapiens (Human), UniProt P48048); test: Thallium Flux Assay (ROMK channel functional thallium flux, FLIPR-Tetra); format: cell-based; settings: HEK293 cells stably expressing hROMK (hKir1.1)
Procedure: HEK293 cells stably expressing hROMK (hKir1.1) were grown at 37° C. in a 10% CO2 humidified incubator in complete growth media: Dulbecco's Modified Eagle Medium supplemented with non-essential amino acids, Penicillin/Streptomycin/Glutamine, G418 and FBS. At >80% confluency, aspirate the media from the flask and rinse with 10 mL Calcium/Magnesium-free PBS. Add 5 mL of 1× trypsin (prepared in Ca/Mg Free PBS) to T-225 flask and return flask to 37° C./CO2 incubator for 2-3 minutes. To dislodge the cell, gently bang the side of the flask with your hand. Triturate the cells completely and then transfer the cells to 25 mL complete media. Centrifuge at 1,500 rpm for 6 min followed by resuspension in complete growth media and determine cell concentration. For typical re-seeding, 4E6 cells/T-225 flask will attain>80% confluency in 4 days. Under ideal growth conditions and appropriate tissue culture practices, this cell line is stable for 40-45 passages.
• FluxOR™ Reagent (Component A) • FluxOR™ Assay Buffer (Component B)—10× Concentrate • PowerLoad™ Concentrate (Component C)—100× Concentrate • Probenecid (Component D)—Lyophilized sample is kept at −20° C. Water soluble, 100× after solubilization in 1 mL water. Store at 4° C. • FluxOR™ Chloride-free Buffer (Component E)—5× Concentrate • Potassium sulfate (K2SO4) Concentrate (Component F)—125 mM in water. Store at 4° C. • Thallium sulfate (Tl2SO4) Concentrate (Component G)—50 mM in water. Store at 4° C. • DMSO (dimethyl sulfoxide, Component H)—1 mL (100%) Reagent Preparation: FluxOR Working Solutions • 1000× FluxOR™ Reagent: Reconstitute a vial of component A in 100 μl DMSO; Mix well; Store 10 μl aliquots at −20° C. • 1× FluxOR™ Assay Buffer: Dilute Component B 10-fold with water; Adjust pH to 7.4 with Hepes/NaOH; Filter and store at 4° C. • Probenecid/Assay Buffer: 100 mL of 1× FluxOR™ Assay Buffer; 1 mL of reconstituted component D; Store at 4° C. • Loading Buffer (per microplate): 10 μl 1000× FluxOR™ Reagent; 100 μl component C; 10 mL Probenecid/Assay Buffer • Compound Buffer (per microplate): 20 mL Probenecid/Assay Buffer; 0.3 mM ouabain (10 mM ouabain in water can be stored in amber bottle/aluminum foil at room temperature); Test compound • 1× FluxOR™ Chloride-Free Buffer: Prepare 1× working solution in water. Can be stored at room temperature • Stimulant Buffer (prepared at 5× final concentration in 1× FluxOR™ Chloride-Free Buffer): 7.5 mM Thallium sulfate and 0.75 mM Potassium sulfate (to give a final assay concentration of 3 mM Thallium/0.3 mM Potassium). Store at 4° C. when not in use. If kept sterile, this solution is good for months. Assay Protocol—
The ROMK channel functional thallium flux assay is performed in 384 wells, using the FLIPR-Tetra instrument. HEK-hKir1.1 cells are seeded in Poly-D-Lysine microplates and kept in a 37° C.-10% CO2 incubator overnight. On the day of the experiment, the growth media is replaced with the FluxOR™ reagent loading buffer and incubated, protected from light, at ambient temperature (23-25° C.) for 90 min. The loading buffer is replaced with assay buffer±test compound followed by 30 min incubation at ambient temperature, where the Thallium/Potassium stimulant is added to the microplate.
• 1. Seed HEK-hKir1.1 cells (50 μl at 20,000 cells/well) in 384-well PDL coated Microplates • 2. Allow cells to adhere overnight in humidified 37° C./10% CO2 incubator • 3. Completely remove cell growth media from microplate and replace with 25 μl loading buffer • 4. Incubate Microplate at room temperature, protected form light, for 90 min • 5. Remove loading buffer and replace with 25 μl 1× Assay Buffer±test compound. • 6. Incubate microplate at room temperature, protected form light, for 30 min • 7. At FLIPR-Tetra 384: Add stimulant (Thallium/Potassium) solution to microplate and monitor fluorescence. Excitation=400 nm, Emission=460 & 580 nm. Collect data for ˜10 min. Data Calculation—

[2] = molecular target: Kir1.1 (ROMK1) (Homo sapiens (Human), UniProt P48048); test: Electrophysiology Assay (whole cell voltage clamp, IonWorks Quattro); format: cell-based; settings: Chinese hamster ovary cells stably expressing Kir1.1; block during voltage step to 0 mV
Procedure: Block of Kir1.1 (ROMK1) currents was examined by whole cell voltage clamp (Hamill et. al. […] Prior to an experiment, Kir1.1 expression was induced by overnight incubation with 1 mM sodium butyrate. […] After centrifugation, the cell pellet was resuspended in approximately 4.0 mL of bath solution and placed in the IonWorks instrument. The intracellular solution consisted of (in mM): 80 K gluconate, 40 KCl, 20 KF, 3.2 MgCl2, 3 EGTA, 5 Hepes, pH 7.4. […] Amphotericin B (Sigma A-4888) was prepared as a 40 mg/mL solution in DMSO. Voltage protocols and current recordings were performed using the IonWorks HT software/hardware system. […] No correction for liquid junction potentials was used. The test pulse, consisting of a 100 ms step to 0 mV from a holding potential of −70 mV, followed by a 100 ms voltage ramp from −70 mV to +70 mV, was applied before and after a 6 min compound incubation period. Test compounds were prepared by diluting DMSO stock solutions into the bath solution at 3× the final concentration and placed in the instrument in 96-well polypropylene plates. Current amplitudes were measured using the IonWorks software. To assess compound potency, the fractional block during the voltage step to 0 mV was calculated in Microsoft Excel (Microsoft, Redmond, Calif.), and dose-response curves were fitted with Igor Pro 4.0 (WaveMetrics, Lake Oswego, Oreg.).

Sequence of Kir1.1 (ROMK1) (P48048 whole entry): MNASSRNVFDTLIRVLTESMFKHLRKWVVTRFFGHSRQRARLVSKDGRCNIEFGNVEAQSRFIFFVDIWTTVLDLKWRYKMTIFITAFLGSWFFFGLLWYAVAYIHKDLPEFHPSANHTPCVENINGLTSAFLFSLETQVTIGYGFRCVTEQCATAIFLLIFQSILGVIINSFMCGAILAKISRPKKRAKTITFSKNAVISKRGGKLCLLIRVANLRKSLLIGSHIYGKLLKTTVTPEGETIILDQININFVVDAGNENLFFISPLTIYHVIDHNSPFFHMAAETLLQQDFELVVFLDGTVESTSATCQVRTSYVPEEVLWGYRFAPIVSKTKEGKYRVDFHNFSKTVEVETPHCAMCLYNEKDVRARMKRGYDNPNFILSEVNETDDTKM
Sequence of hROMK (hKir1.1) (P48048 whole entry): as above

SMILES	IC50 [1]	IC50 [2]
N#Cc1c(F)ccc([C@@H]2CN3CCN(C(=O)C4CCc5nc(-n6cnnn6)ccc54)C[C@@H]3CO2)c1F (some centres unmarked) [Example 20]	230 nM	80 nM
N#Cc1c(F)ccc([C@H]2CN3CCN(C(=O)C4CCc5nc(-n6cnnn6)ccc54)C[C@@H]3CO2)c1F (some centres unmarked) [Example 21]	240 nM	80 nM
N#Cc1c(F)ccc([C@@H]2CN3CCN(C(=O)C4CCc5cc(-n6cnnn6)ncc54)C[C@H]3CO2)c1F (some centres unmarked) [Example 22]	160 nM	40 nM
N#Cc1c(F)ccc([C@H]2CN3CCN(C(=O)C4CCc5cc(-n6cnnn6)ncc54)C[C@@H]3CO2)c1F (some centres unmarked) [Example 23]	540 nM	150 nM
N#Cc1c(F)ccc([C@@H]2CN3CCN(C(=O)C4CCc5cc(-n6cnnn6)ncc54)C[C@@H]3CO2)c1F (some centres unmarked) [Example 24]	110 nM	200 nM
N#Cc1c(F)ccc([C@H]2CN3CCN(C(=O)C4CCc5cc(-n6cnnn6)ncc54)C[C@H]3CO2)c1F (some centres unmarked) [Example 25]	100 nM	60 nM
N#Cc1c(F)ccc([C@@H]2CN3CCN(C(=O)C4CCc5nc(-n6cnnn6)ccc54)C[C@H]3CO2)c1Cl (some centres unmarked) [Example 26]	220 nM	110 nM
N#Cc1c(F)ccc([C@@H]2CN3CCN(C(=O)C4CCc5nc(-n6cnnn6)ccc54)C[C@H]3CO2)c1Cl (some centres unmarked) [Example 27]	230 nM	120 nM
N#Cc1c(F)ccc([C@H]2CN3CCN(C(=O)C4CCc5nc(-n6cnnn6)ccc54)C[C@H]3CO2)c1Cl (some centres unmarked) [Example 28]	220 nM	120 nM
N#Cc1c(F)ccc([C@H]2CN3CCN(C(=O)C4CCc5nc(-n6cnnn6)ccc54)C[C@H]3CO2)c1Cl (some centres unmarked) [Example 29]	450 nM	140 nM
N#Cc1c(F)ccc([C@H]2CN3CCN(C(=O)C4CCc5nc(-n6cnnn6)ccc54)C[C@@H]3CO2)c1Cl (some centres unmarked) [Example 30]	290 nM	190 nM
N#Cc1c(F)ccc([C@@H]2CN3CCN(C(=O)C4CCc5cc(-n6cnnn6)ncc54)C[C@H]3CO2)c1Cl (some centres unmarked) [Example 31]	110 nM	80 nM
N#Cc1c(F)ccc([C@H]2CN3CCN(C(=O)C4CCc5cc(-n6cnnn6)ncc54)C[C@H]3CO2)c1Cl (some centres unmarked) [Example 32]	130 nM	70 nM
Cc1c([C@H]2CN3CCN(C(=O)C4CCc5nc(-n6cnnn6)ccc54)C[C@@H]3CO2)ccc(F)c1C#N (some centres unmarked) [Example 34]	120 nM	160 nM
Cc1c([C@H]2CN3CCN(C(=O)C4CCc5cc(-n6cnnn6)ncc54)C[C@H]3CO2)ccc(F)c1C#N (some centres unmarked) [Example 36]	660 nM	140 nM
Cc1c([C@@H]2CN3CCN(C(=O)C4CCc5cc(-n6cnnn6)cnc54)C[C@H]3CO2)ccc(F)c1C#N (some centres unmarked) [Example 37]	810 nM	240 nM
Cc1c([C@@H]2CN3CCN(C(=O)C4CCc5cc(-n6cnnn6)cnc54)C[C@H]3CO2)ccc(F)c1C#N (some centres unmarked) [Example 38]	900 nM	280 nM

SMILES	IC50 [1]	IC50 [2]
Cc1c([C@H]2CN3CCN(C(=O)C4CCc5cc(-n6cnnn6)cnc54)C[C@@H]3CO2)ccc(F)c1C#N (some centres unmarked) [Example 39]	600 nM	390 nM
Cc1c([C@H]2CN3CCN(C(=O)C4CCc5cc(-n6cnnn6)ncc54)C[C@@H]3CO2)ccc(F)c1C#N (some centres unmarked) [Example 40]	270 nM	120 nM
Cc1c([C@H]2CN3CCN(C(=O)C4CCc5cc(-n6cnnn6)ncc54)C[C@@H]3CO2)ccc(F)c1C#N (some centres unmarked) [Example 41]	720 nM	110 nM
Cc1c([C@@H]2CN3CCN(C(=O)C4CCc5cc(-n6cnnn6)ncc54)C[C@@H]3CO2)ccc(F)c1C#N (some centres unmarked) [Example 42]	350 nM	130 nM
Cc1c([C@@H]2CN3CCN(C(=O)C4CCc5cc(-n6cnnn6)ncc54)C[C@@H]3CO2)ccc(F)c1C#N (some centres unmarked) [Example 43]	850 nM	130 nM
Cc1c([C@@H]2CN3CCN(C(=O)C4CCc5cc(-n6cnnn6)ncc54)C[C@H]3CO2)ccc(F)c1C#N (some centres unmarked) [Example 44]	170 nM	170 nM
O=C1OCCc2cc([C@@H]3CN4CCN(C(=O)C5CCc6cc(-n7cnnn7)ncc65)C[C@H]4CO3)ccc21 (some centres unmarked) [Example 45]	600 nM	220 nM
COc1cc([C@H]2CN3CCN(C(=O)C4CCc5nc(-n6cnnn6)ccc54)C[C@H]3CO2)ccc1C#N (some centres unmarked) [Example 51]	580 nM	190 nM
COc1c([C@@H]2CN3CCN(C(=O)C4CCc5cc(-n6cnnn6)ncc54)C[C@H]3CO2)ccc(F)c1C#N (some centres unmarked) [Example 52]	420 nM	220 nM
COc1cc([C@@H]2CN3CCN(C(=O)C4CCc5nc(-n6cnnn6)ccc54)C[C@@H]3CO2)ccc1C#N (some centres unmarked) [Example 63]	740 nM	270 nM
N#Cc1c(F)ccc([C@@H]2CN3CCN(C(=O)C4CCc5nc(-n6cnnn6)ccc54)C[C@@H]3CO2)c1Cl (some centres unmarked) [Example 64]	120 nM	100 nM
N#Cc1c(F)ccc([C@@H]2CN3CCN(C(=O)C4CCc5nc(-n6cnnn6)ccc54)C[C@@H]3CO2)c1Cl (some centres unmarked) [Example 65]	340 nM	140 nM
N#Cc1cc([C@@H]2CN3CCN(C(=O)C4CCc5cc(-n6cnnn6)ncc54)C[C@H]3CO2)c(F)cc1F (some centres unmarked) [Example 68]	200 nM	200 nM
COc1c([C@@H]2CN3CCN(C(=O)C4CCc5cc(-n6cnnn6)ncc54)C[C@H]3CO2)ccc(C#N)c1F (some centres unmarked) [Example 70]	500 nM	100 nM
COc1ccc([C@H]2CN3CCN(C(=O)C4CCc5cc(-n6cnnn6)ncc54)C[C@@H]3CO2)c(C)c1C#N (some centres unmarked) [Example 74]	500 nM	280 nM
Cc1c([C@@H]2CN3CCN(C(=O)C4Cc5cnc(-n6cnnn6)nc5C4)C[C@@H]3CO2)ccc(F)c1C#N (some centres unmarked) [Example 75]	250 nM	150 nM
Cc1c([C@H]2CN3CCN(C(=O)C4Cc5cnc(-n6cnnn6)nc5C4)C[C@H]3CO2)ccc(F)c1C#N (some centres unmarked) [Example 76]	460 nM	130 nM
